# From ChEMBL document CHEMBL1926647, “Discovery of 4-aminomethylphenylacetic acids as γ-secretase modulators via a scaffold design approach” (Bioorg Med Chem Lett, 2011)
# Activity calls are given as the source filed them. No cut-off for these calls is given here.
# What was measured:
# MC-IXC/H4 = experiment: Inhibition of Notch intracellular domain in human MC-IXC/H4 cells assessed as reduction in HES1 protein expression at 10 uM after 24 hrs Western blotting; type: cell-based
# [1] = Modulation of gamma-secretase expressed in CHO cells co-expressing APP V717F mutant assessed as reduction in amyloid beta42 production after 17 hrs by ELISA; type: cell-based
# [2] = Half life in wild type CF1 mouse; type: ADME, organism-based; settings: in vivo
# [3] = Oral bioavailability in wild type CF1 mouse; type: ADME, organism-based; settings: in vivo
# Mus musculus [4] = experiment: Inhibition of gamma-secretase-mediated cleavage of APP in wild type CF1 mouse brain assessed as inhibition of amyloid beta42 production at 50 mg/kg, po after 4 hrs by ELISA; type: functional
# [5] = Clearance in wild type CF1 mouse; type: ADME, organism-based; settings: in vivo
# [6] = Drug uptake in wild type CF1 mouse brain at 50 mg/kg, po after 4 hrs; type: ADME, organism-based; design: dose 50 mg/kg, route oral; settings: read-out: Drug uptake
# [7] = Drug uptake in wild type CF1 mouse plasma at 50 mg/kg, po after 4 hrs; type: ADME, organism-based; design: dose 50 mg/kg, route oral
# [8] = Drug uptake in wild type CF1 mouse plasma at 30 mg/kg, po after 4 hrs; type: ADME, organism-based; design: dose 30 mg/kg, route oral
# [9] = Drug uptake in wild type CF1 mouse brain at 30 mg/kg, po after 4 hrs; type: ADME, organism-based; design: dose 30 mg/kg, route oral; settings: read-out: Drug uptake
# Mus musculus [10] = experiment: Inhibition of gamma-secretase-mediated cleavage of APP in wild type CF1 mouse brain assessed as inhibition of amyloid beta42 production at 30 mg/kg, po after 4 hrs by ELISA; type: functional; settings: Mus musculus, CF1, Brain, po, 4 h
# Nucleic Acid = experiment: Ratio of drug level in brain in wild type CF1 mouse to EC50 for gamma-secretase expressed in CHO cells; type: cell-based
# CHO [11] = experiment: Modulation of gamma-secretase expressed in CHO cells co-expressing APP V717F mutant assessed as increase in amyloid beta38 secretion after 17 hrs by ELISA; type: cell-based
# CHO [12] = experiment: Modulation of gamma-secretase expressed in CHO cells co-expressing APP V717F mutant assessed as effect on amyloid beta40 production after 17 hrs by ELISA; type: cell-based
# Mus musculus [13] = experiment: Inhibition of gamma-secretase-mediated cleavage of APP in wild type CF1 mouse brain assessed as inhibition of amyloid beta42 production at 12.5 mg/kg, po after 4 hrs by ELISA; type: functional; settings: 12.5 mg/kg
# Brain = experiment: Drug uptake in rat brain at 30 mg/kg, po after 4 hrs; settings: in vivo
# Rattus norvegicus = experiment: Inhibition of gamma-secretase-mediated cleavage of APP in rat brain assessed as inhibition of amyloid beta42 production at 30 mg/kg, po after 4 hrs by ELISA
compound,measurement,setting,value
"CC(C)(C)CC(c1ccc(CC(=O)O)cc1-c1ccc(C(F)(F)F)cc1)N1CCC(C(F)(F)F)CC1 (single isomer, unassigned; enantiomer 2) [listing 1 of 2 here]",inhibition,MC-IXC/H4,inactive
CC(C)CCC(c1ccc(CC(=O)O)cc1-c1ccc(C(F)(F)F)cc1)N1CCC(F)(F)C1 (stereo not drawn),EC50,[1],3.3 µM
CC(C)CCC(c1ccc(CC(=O)O)cc1-c1ccc(C(F)(F)F)cc1)N1CCC(F)CC1 (stereo not drawn),EC50,[1],3.3 µM
CC(C)CCN(Cc1ccc(C(=O)O)cc1-c1ccc(C(F)(F)F)cc1)c1ccc(C(F)(F)F)cc1,EC50,[1],5.4 µM
CC(C)CCN(Cc1ccc(CC(=O)O)cc1-c1ccc(C(F)(F)F)nc1)[C@H]1CC[C@H](C(C)(C)C)CC1,EC50,[1],5 µM
CC(C)CCC(c1ccc(CC(=O)O)cc1-c1ccc(C(F)(F)F)cc1)N1CCC(C(F)(F)F)CC1 (stereo not drawn),half-life,[2],2.9 h
same,bioavailability,[3],100%
same,inhibition in vivo at 50 mg/kg,Mus musculus [4],35%
same,clearance,[5],3.2 mL/min/kg
same,concentration at 4 h,[6],17 µM
same,EC50,[1],0.62 µM
same,concentration at 4 h,[7],32 µM
CC(C)CCN(Cc1ccc(CC(=O)O)cc1-c1ccc(F)cc1)[C@H]1CC[C@H](C(C)(C)C)CC1,EC50,[1],5.6 µM
CC(C)CCC(c1ccc(CC(=O)O)cc1-c1ccc(C(F)(F)F)cc1)N1CCC(C(C)(C)C)CC1 (stereo not drawn),EC50,[1],1.1 µM
O=C(O)Cc1ccc(C(CCC(F)(F)F)N2CCC(C(F)(F)F)CC2)c(-c2ccc(C(F)(F)F)cc2)c1 (stereo not drawn),EC50,[1],1.4 µM
CC(C)CCC(c1ccc(CC(=O)O)cc1-c1ccc(C(F)(F)F)cc1)N1CC[C@@H](F)C1 (stereo partly drawn),EC50,[1],> 10 µM
O=C(O)Cc1ccc(C(C2CCCCC2)N2CCC(C(F)(F)F)CC2)c(-c2ccc(C(F)(F)F)cc2)c1 (stereo not drawn),concentration at 4 h,[8],23 µM
same,concentration at 4 h,[9],10 µM
same,EC50,[1],0.42 µM
same,inhibition in vivo at 30 mg/kg,Mus musculus [10],15%
CC(C)CCN(Cc1ccc(CC(=O)O)cc1-c1ccc(C(F)(F)F)cc1)[C@H]1CC[C@H](C(C)(C)C)CC1,Ratio,Nucleic Acid,10
same,inhibition in vivo at 50 mg/kg,Mus musculus [4],24%
same,concentration at 4 h,[6],7 µM
same,EC50,[1],0.67 µM
CC(C)CCN(Cc1ccc(CC(=O)O)cc1-c1ccc(C(F)(F)F)cc1)c1ccc(C(F)(F)F)cc1,Activity,CHO [11],Active
same,inhibition,Mus musculus [4],inactive
same,concentration at 4 h,[6],0.6 µM
same,EC50,[1],1.5 µM
same,concentration at 4 h,[7],15 µM
same,Activity,CHO [12],inactive
"CC(C)(C)CC(c1ccc(CC(=O)O)cc1-c1ccc(C(F)(F)F)cc1)N1CCC(C(F)(F)F)CC1 (single isomer, unassigned; enantiomer 2) [listing 2 of 2 here]",inhibition (INH),Mus musculus [13],30%
same,concentration,Brain,26 µM
same,inhibition (INH),Rattus norvegicus,30%
